± gives the expanded uncertainty stated by the source.
How the values were obtained:
[1] = excess molar enthalpy (molar enthalpy of mixing); xn = mol fraction of the nth substance listed; conditions: 101.32 kPa, Liquid
[2] = xn = mol fraction of the nth substance listed; conditions: 101.32 kPa, Liquid

CCOC=O [ethyl methanoate] + CCCCCC
Conditions	excess molar enthalpy [kcal/mol]	mass density [kg/m3]
[1], 291.15 K, x1 = 0.092	0.107 ± 0.00227	–
[1], 291.15 K, x1 = 0.209	0.228 ± 0.00406	–
[1], 291.15 K, x1 = 0.3175	0.305 ± 0.00502	–
[1], 291.15 K, x1 = 0.4075	0.346 ± 0.00574	–
[1], 291.15 K, x1 = 0.4677	0.364 ± 0.00598	–
[1], 291.15 K, x1 = 0.5161	0.368 ± 0.00598	–
[1], 291.15 K, x1 = 0.5681	0.365 ± 0.00598	–
[1], 291.15 K, x1 = 0.6185	0.344 ± 0.00574	–
[1], 291.15 K, x1 = 0.6714	0.319 ± 0.00526	–
[1], 291.15 K, x1 = 0.7272	0.286 ± 0.00478	–
[1], 291.15 K, x1 = 0.7841	0.243 ± 0.0043	–
[1], 291.15 K, x1 = 0.843	0.188 ± 0.00335	–
[1], 291.15 K, x1 = 0.9022	0.127 ± 0.00263	–
[1], 291.15 K, x1 = 0.9514	0.0729 ± 0.00186	–
[1], 318.15 K, x1 = 0.1003	0.149 ± 0.00287	–
[1], 318.15 K, x1 = 0.1895	0.244 ± 0.0043	–
[1], 318.15 K, x1 = 0.2842	0.323 ± 0.0055	–
[1], 318.15 K, x1 = 0.3713	0.367 ± 0.00598	–
[1], 318.15 K, x1 = 0.4495	0.389 ± 0.00645	–
[1], 318.15 K, x1 = 0.5137	0.394 ± 0.00645	–
[1], 318.15 K, x1 = 0.5599	0.387 ± 0.00645	–
[1], 318.15 K, x1 = 0.5991	0.374 ± 0.00621	–
[1], 318.15 K, x1 = 0.6795	0.337 ± 0.00574	–
[1], 318.15 K, x1 = 0.7593	0.281 ± 0.00478	–
[1], 318.15 K, x1 = 0.8299	0.216 ± 0.00382	–
[1], 318.15 K, x1 = 0.8814	0.155 ± 0.00311	–
[1], 318.15 K, x1 = 0.9215	0.105 ± 0.00234	–
[1], 318.15 K, x1 = 0.966	0.051 ± 0.00167	–
[2], 291.15 K, x1 = 0.0495	–	667.8 ± 2
[2], 291.15 K, x1 = 0.1025	–	675.4 ± 2
[2], 291.15 K, x1 = 0.1497	–	682.8 ± 2
[2], 291.15 K, x1 = 0.2049	–	692.1 ± 2
[2], 291.15 K, x1 = 0.2531	–	700.4 ± 2
[2], 291.15 K, x1 = 0.3068	–	710.6 ± 2
[2], 291.15 K, x1 = 0.3937	–	728.2 ± 2
[2], 291.15 K, x1 = 0.5016	–	753 ± 2
[2], 291.15 K, x1 = 0.6039	–	780 ± 2
[2], 291.15 K, x1 = 0.6996	–	808.2 ± 2.1
[2], 291.15 K, x1 = 0.7504	–	824.6 ± 2.1
[2], 291.15 K, x1 = 0.8029	–	842.4 ± 2.1
[2], 291.15 K, x1 = 0.9016	–	880.3 ± 2.2
[2], 291.15 K, x1 = 0.9065	–	882.4 ± 2.2
[2], 291.15 K, x1 = 0.9522	–	901.9 ± 2.3
[2], 291.15 K, x1 = 0.958	–	905 ± 2.3
[2], 291.15 K, x1 = 1	–	924.7 ± 2.3
[2], 298.15 K, x1 = 0.0777	–	665.63 ± 2.1
[2], 298.15 K, x1 = 0.1291	–	673.25 ± 2
[2], 298.15 K, x1 = 0.1715	–	679.95 ± 2
[2], 298.15 K, x1 = 0.2501	–	693.44 ± 2
[2], 298.15 K, x1 = 0.327	–	707.73 ± 2
[2], 298.15 K, x1 = 0.4765	–	739.84 ± 2
[2], 298.15 K, x1 = 0.5354	–	754.13 ± 2
[2], 298.15 K, x1 = 0.5955	–	769.95 ± 2
[2], 298.15 K, x1 = 0.6441	–	783.83 ± 2.1
[2], 298.15 K, x1 = 0.6993	–	800.39 ± 2.1
[2], 298.15 K, x1 = 0.7956	–	832.38 ± 2.1
[2], 298.15 K, x1 = 0.884	–	865.42 ± 2.2
[2], 298.15 K, x1 = 0.9643	–	898.98 ± 2.3
[2], 298.15 K, x1 = 1	–	915.16 ± 2.3
[2], 308.15 K, x1 = 0.0485	–	651.9 ± 2.1
[2], 308.15 K, x1 = 0.1103	–	660.5 ± 2.1
[2], 308.15 K, x1 = 0.1539	–	667.2 ± 2.1
[2], 308.15 K, x1 = 0.2548	–	683.8 ± 2.1
[2], 308.15 K, x1 = 0.3998	–	711.6 ± 2.1
[2], 308.15 K, x1 = 0.4915	–	731.9 ± 2.1
[2], 308.15 K, x1 = 0.5935	–	757.8 ± 2.1
[2], 308.15 K, x1 = 0.6998	–	788 ± 2.1
[2], 308.15 K, x1 = 0.7971	–	819.9 ± 2.2
[2], 308.15 K, x1 = 0.9063	–	860.7 ± 2.3
[2], 308.15 K, x1 = 0.9488	–	878.7 ± 2.3
[2], 308.15 K, x1 = 1	–	902.07 ± 2.3
[2], 318.15 K, x1 = 0.0476	–	642.18 ± 2.1
[2], 318.15 K, x1 = 0.0875	–	647.84 ± 2.1
[2], 318.15 K, x1 = 0.1044	–	649.54 ± 2.1
[2], 318.15 K, x1 = 0.1471	–	655.88 ± 2.1
[2], 318.15 K, x1 = 0.2199	–	667.46 ± 2.1
[2], 318.15 K, x1 = 0.3041	–	681.93 ± 2.1
[2], 318.15 K, x1 = 0.4061	–	701.97 ± 2.1
[2], 318.15 K, x1 = 0.5293	–	729.7 ± 2.1
[2], 318.15 K, x1 = 0.5869	–	744.1 ± 2.1
[2], 318.15 K, x1 = 0.6984	–	775.52 ± 2.1
[2], 318.15 K, x1 = 0.7476	–	790.78 ± 2.2
[2], 318.15 K, x1 = 0.7932	–	805.56 ± 2.2
[2], 318.15 K, x1 = 0.8873	–	840.19 ± 2.3
[2], 318.15 K, x1 = 0.9692	–	874.21 ± 2.4
[2], 318.15 K, x1 = 1	–	888.42 ± 2.4

Reference: the NIST ThermoML archive (doi:10.1021/je060355j)
